{"source": "patent US20240238313A1", "about": "“DOSING OF CV-10155 IN THE EVENING OR PRIOR TO SLEEP TO TREAT GABAA DISORDERS” (priority 2021, published 2024)", "key": {"[1]": {"conditions": "humans, single oral dose, range of 5-135 mg"}, "[2]": {"assay": "60 mg CV-10155 orally once per day for seven days in humans (MAD): PK and adverse events"}, "[3]": {"conditions": "human, in vivo, 60 mg"}, "[4]": {"biological_target": "α4β3δ GABAA receptors (extra synaptic) (Homo sapiens, UniProt P28472+P48169)", "sequence (P48169 36-554)": "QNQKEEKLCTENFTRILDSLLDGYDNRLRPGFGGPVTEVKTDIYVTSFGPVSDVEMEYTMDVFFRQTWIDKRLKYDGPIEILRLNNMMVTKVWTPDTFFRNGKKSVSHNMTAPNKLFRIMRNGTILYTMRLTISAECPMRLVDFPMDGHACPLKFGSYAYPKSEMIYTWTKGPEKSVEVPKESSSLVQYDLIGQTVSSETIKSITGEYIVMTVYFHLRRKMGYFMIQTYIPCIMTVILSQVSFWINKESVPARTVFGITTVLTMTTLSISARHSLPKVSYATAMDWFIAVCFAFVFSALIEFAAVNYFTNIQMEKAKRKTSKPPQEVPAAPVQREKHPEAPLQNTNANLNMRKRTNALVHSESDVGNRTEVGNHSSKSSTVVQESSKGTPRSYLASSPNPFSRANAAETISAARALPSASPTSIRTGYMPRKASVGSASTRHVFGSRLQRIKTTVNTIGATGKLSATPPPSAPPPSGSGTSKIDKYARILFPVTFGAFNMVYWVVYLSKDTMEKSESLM", "sequence (P28472 26-473)": "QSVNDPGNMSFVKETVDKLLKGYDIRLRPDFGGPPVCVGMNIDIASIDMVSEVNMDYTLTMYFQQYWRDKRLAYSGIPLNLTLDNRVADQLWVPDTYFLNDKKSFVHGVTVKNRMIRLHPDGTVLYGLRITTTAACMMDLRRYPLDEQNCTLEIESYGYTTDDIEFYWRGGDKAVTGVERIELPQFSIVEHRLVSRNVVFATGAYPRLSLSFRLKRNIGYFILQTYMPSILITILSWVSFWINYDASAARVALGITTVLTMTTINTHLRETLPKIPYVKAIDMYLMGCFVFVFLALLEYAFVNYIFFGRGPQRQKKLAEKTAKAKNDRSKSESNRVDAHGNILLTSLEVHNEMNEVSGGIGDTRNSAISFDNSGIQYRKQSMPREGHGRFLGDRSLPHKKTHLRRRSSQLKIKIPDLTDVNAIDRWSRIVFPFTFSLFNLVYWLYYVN", "sequence (O14764 17-452 partner limits assumed)": "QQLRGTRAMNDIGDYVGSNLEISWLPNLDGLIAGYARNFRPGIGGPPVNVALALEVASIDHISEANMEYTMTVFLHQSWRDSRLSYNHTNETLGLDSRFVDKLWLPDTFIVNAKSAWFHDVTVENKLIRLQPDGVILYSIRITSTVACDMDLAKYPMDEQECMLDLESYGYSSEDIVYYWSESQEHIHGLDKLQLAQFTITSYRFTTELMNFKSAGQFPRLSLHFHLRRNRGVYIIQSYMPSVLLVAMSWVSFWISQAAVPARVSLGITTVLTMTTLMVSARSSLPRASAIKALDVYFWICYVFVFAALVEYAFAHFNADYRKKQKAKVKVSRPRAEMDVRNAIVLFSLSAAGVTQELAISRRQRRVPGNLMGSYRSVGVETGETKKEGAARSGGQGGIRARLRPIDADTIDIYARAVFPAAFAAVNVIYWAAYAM", "conditions": "compositions containing isomerically pure compound; described in U.S. Pat. No. 10,857,163; cited from earlier work"}, "Forced swim test": {"system": "Forced swim test", "assay": "Forced swim test - Depression", "set-up": "species or system rodent", "conditions": "in vivo"}, "[5]": {"conditions": "cited from earlier work"}, "[6]": {"conditions": "10 mg in HPMC-AS formulation PO, fed cohort, individual dogs #9-12 and mean (r14)"}, "[7]": {"conditions": "10 mg in HPMC-AS formulation PO, pentagastrin/fasted cohort, individual dogs #1-4 and mean (r14)"}, "[8]": {"conditions": "30 mg in HPMC-AS formulation PO, pentagastrin/fasted cohort, individual dogs #13-16 and mean (r14)"}, "[9]": {"conditions": "60 mg, evening, fed state, N = 9"}, "[10]": {"conditions": "60 mg, morning, fasted state, N = 9"}}, "note": "Where “and” joins values, the source holds several entries; their conditions need not be identical. Identical values can stand only once. Entries after “also recorded” stand apart in the source; their conditions may differ. Like-named read-outs stand apart in the source and are kept apart here."}
{"smiles": "C[C@@]1(O)CC[C@@]2(C)[C@@H](CC[C@@H]3[C@@H]2CC[C@]2(C)[C@@H](C(=O)Cn4cc(C#N)cn4)CC[C@@H]32)C1", "note": "[CV-10155, 1-[2-[(3R,5S,8R,9S,10S,13S,14S,17S)-3-hydroxy-3,10,13-trimethyl-1,2,4,5,6,7,8,9,11,12,14,15,16,17-tetradecahydrocyclopenta[a]phenanthren-17-yl]-2-oxoethyl]pyrazole-4-carbonitrile]", "values": [{"measurement": "dose-limiting adverse events", "setting": "[1]", "result": "No dose-limiting adverse events"}, {"measurement": "AUCInf", "setting": "[6]", "result": 2440, "unit": "ng·h/mL"}, {"measurement": "AUCInf/D", "setting": "[6]", "result": "5602 kg·ng·h/mL/mg and 2929 kg·ng·h/mL/mg and 2273 kg·ng·h/mL/mg and 4084 kg·ng·h/mL/mg"}, {"measurement": "T1/2", "setting": "[6]", "result": 12.5, "unit": "h"}, {"measurement": "Tmax", "setting": "[6]", "result": 1.13, "unit": "h"}, {"measurement": "AUCInf", "setting": "[7]", "result": 2612, "unit": "ng·h/mL"}, {"measurement": "AUCInf/D", "setting": "[7]", "result": "2762 kg·ng·h/mL/mg and 2441 kg·ng·h/mL/mg and 3314 kg·ng·h/mL/mg and 2821 kg·ng·h/mL/mg"}, {"measurement": "Tmax", "setting": "[7]", "result": 1.50, "unit": "h"}, {"measurement": "AUCInf/D", "setting": "[8]", "result": "4995 kg·ng·h/mL/mg and 3157 kg·ng·h/mL/mg and 1572 kg·ng·h/mL/mg and 2982 kg·ng·h/mL/mg"}, {"measurement": "T1/2", "setting": "[8]", "result": 12.3, "unit": "h"}, {"measurement": "AE Back pain, #", "setting": "[2]; [9]", "result": 1}, {"measurement": "AE Bloating, #", "setting": "[2]; [9]", "result": 1}, {"measurement": "AE Dizziness, #", "setting": "[2]; [9]", "result": 1}, {"measurement": "AE Headache, #", "setting": "[2]; [9]", "result": 2}, {"measurement": "AE Sleepiness, #", "setting": "[2]; 60 mg, evening, fed state, N = 9 (two separate table lines)", "result": 1}, {"measurement": "AE Dizziness, #", "setting": "[2]; [10]", "result": 1}, {"measurement": "AE Feeling sleepy, #", "setting": "[2]; [10]", "result": 1}, {"measurement": "AE Feeling tired, #", "setting": "[2]; [10]", "result": 2}, {"measurement": "AE Headache, #", "setting": "[2]; [10]", "result": 2}, {"measurement": "AE Sleepiness, #", "setting": "[2]; [10]", "result": 9}, {"measurement": "AE Tiredness, #", "setting": "[2]; [10]", "result": 3}, {"measurement": "tolerability profile compared to PRAX-114 and Sage-217", "setting": "[2]; humans, 60 mg dosed in the evening", "result": "favorable tolerability profile compared to PRAX-114"}, {"measurement": "exposure levels compared with 30 mg doses of Sage-217", "setting": "[2]; humans, 60 mg doses", "result": "higher exposure levels"}, {"measurement": "AE", "setting": "[2]; humans, CV-10155 in the evening in a fed state, individual subjects", "result": "Headache; also recorded: Somnolence; also recorded: Back pain; also recorded: Abdominal distension; also recorded: Dizziness"}, {"measurement": "Severity", "setting": "[2]; humans, evening, fed state, per AE of the same table row", "result": "Moderate and Mild"}, {"measurement": "adverse effects interfering with sleeping", "setting": "[2]; humans, oral, evening, fed subjects", "result": "does not produce adverse effects that interfere with sleeping"}, {"measurement": "Racc Cmax", "setting": "[3]", "result": 1.78}, {"measurement": "preferential potentiation of α4β3δ as compared to α1β2γ2 GABAA receptors", "setting": "[4]", "result": "preferentially potentiate α4β3δ GABAA receptors"}]}
{"smiles": "C[C@@]1(O)CC[C@H]2[C@H](CC[C@@H]3[C@@H]2CC[C@]2(C)[C@@H](C(=O)Cn4cc(C#N)cn4)CC[C@@H]32)C1", "note": "[Sage-217]", "values": [{"measurement": "Doses tested in Forced swim test - Depression (* significantly efficacious dose)", "setting": "Forced swim test", "result": "1 - 3* mg/kg"}, {"measurement": "Any AE, (%)", "setting": "[5]; 20 mg (n-188)", "result": 50.0, "unit": "%"}, {"measurement": "Diarrhea, (%)", "setting": "[5]; 20 mg (n-188)", "result": 5.9, "unit": "%"}, {"measurement": "Dizziness, (%)", "setting": "[5]; 20 mg (n-188)", "result": 7.4, "unit": "%"}, {"measurement": "Fatigue, (%)", "setting": "[5]; 20 mg (n-188)", "result": 1.6, "unit": "%"}, {"measurement": "Headache, (%)", "setting": "[5]; 20 mg (n-188)", "result": 11.2, "unit": "%"}, {"measurement": "Nausea, (%)", "setting": "[5]; 20 mg (n-188)", "result": 5.3, "unit": "%"}, {"measurement": "Sedation, (%)", "setting": "[5]; 20 mg (n-188)", "result": 5.9, "unit": "%"}, {"measurement": "Somnolence, (%)", "setting": "[5]; 20 mg (n-188)", "result": 5.9, "unit": "%"}, {"measurement": "Any AE, (%)", "setting": "[5]; 30 mg (n-192)", "result": 54.2, "unit": "%"}, {"measurement": "Diarrhea, (%)", "setting": "[5]; 30 mg (n-192)", "result": 6.3, "unit": "%"}, {"measurement": "Dizziness, (%)", "setting": "[5]; 30 mg (n-192)", "result": 5.7, "unit": "%"}, {"measurement": "Fatigue, (%)", "setting": "[5]; 30 mg (n-192)", "result": 6.8, "unit": "%"}, {"measurement": "Headache, (%)", "setting": "[5]; 30 mg (n-192)", "result": 6.3, "unit": "%"}, {"measurement": "Nausea, (%)", "setting": "[5]; 30 mg (n-192)", "result": 3.6, "unit": "%"}, {"measurement": "Sedation, (%)", "setting": "[5]; 30 mg (n-192)", "result": 4.7, "unit": "%"}, {"measurement": "Somnolence, (%)", "setting": "[5]; 30 mg (n-192)", "result": 6.8, "unit": "%"}]}
